In assay [1] the test system is lung explants from a patient with IPF. In words: IPF patient lung explant culture, gene expression and secreted proteins. The format is cell-based, human. Conditions: 10 days; nintedanib 0.1 μM, Alk5i 10 μM, Ereg Ab 2.5 μg/ml. The protocol:
FIGS. 13A-13I show epiregulin inhibition reduces mouse and human lung fibrosis. (FIGS. 13A-13E) As diagramed in (FIG. 13A), 10 days after intratracheal bleomycin mice began treatment with epiregulin antibody for two weeks prior to euthanasia. Lungs were analyzed for histology (FIG. 13B), modified Ashcroft score (FIG. 13C), hydroxyproline (FIG. 13D) and epiregulin gene expression (FIG. 13E), n=6 (PBS), 11 (BLM), and 7 (Ereg Ab). Histology images in (FIG. 13B) are 10× magnification with 200 μm scale bars and IHC images are 40× magnification with 40 μm scale bars. […] The same tissue was cut into cubes and cultured for 10 days in the presence of the multikinase inhibitor nintedanib 0.1 μM (Nin), the Alk5 inhibitor A-1544033 (IN-1130) 10 μM (Alk5i), epiregulin antibody 2.5 μg/ml (Ereg Ab) or non-treated vehicle control (NT). (FIGS. 13G-13I) Relative expression of indicated genes, n=4 per group. (FIG. 13I) Protein secretion of indicated genes measured by ELISA, n=8 per group. ELISA samples with poor signal and qPCR outliers identified by Grubbs's test with alpha-0.05 were excluded. Data are means±SD (ns, not significant. * P<0.05, ** P<0.01, **** P<0.0001) analyzed with one-way analysis of variance (ANOVA) with Tukey multiple-comparisons test (FIGS. 13C-13E) and Dunnett's multiple-comparisons test (FIGS. 13G-13I).
Pathologic assessment confirmed the diagnosis of early IPF, as evidenced by the presence of fibroblastic foci and hyperplasia of alveolar type II epithelial cells as shown in FIG. 13F. Lung tissue was plated in 24 well plates and cultured for 10 days with media changes every two days. The impact of epiregulin antibody compared to the multikinase inhibitor nintedanib and a transforming growth factor beta type I receptor TGF-βRI/Alk5 small molecule inhibitor was assessed by measuring disease relevant endpoints in gene expression and protein production. At the gene level, reduction in epiregulin expression was observed which was similar to that seen in mouse lung by both epiregulin and TGF-βRI inhibition (FIG. 13G, left panel). […] ECM-remodeling and inflammation. […]
For lung explants, human IPF lung (person) was obtained from the National Disease Research Interchange (NDRI), kept cold, and received <24 hours after cross-clamp. […] After 10 days, culture supernatants were collected, pre-cleared at 4000× g (4° C. 10 mins), transferred to a clean 96 well polypropylene plate and stored at −80° C., until protein endpoints measured. Measured secreted proteins include: human MCP-1 V-Plex (MesoScale Discovery, K151NND-1), human TIMP-1 (MesoScale Discovery, K151JFC-1) and human pro-collagen 1α1 DuoSet Elisa (R&D systems, DY6220-05). All proteins were assayed and analyzed in accordance with their respective assay product datasheets. […]

For assay [2] the following is noted: data from European Medicines Agency; read-out: KD (×10^−12); cited from earlier work.
The conditions of assay [3]: data from European Medicines Agency; tocilizumab from reference 80; cited from earlier work.

With `Cc1cccc(-c2[nH]c(Cc3cccc(C(N)=O)c3)nc2-c2ccc3nccnc3c2)n1` [TGF-βRI/Alk5 small molecule inhibitor], in assay [1], the “COL1A1 gene expression, IPF lung explant” value is recorded as “significantly reduced expression”; the “epiregulin gene expression, IPF lung explant” value was “reduction”; the “pro-COL1A1 protein level, IPF lung explant” value is “significant reduction”.
With `COC(=O)c1ccc2c(c1)NC(=O)/C2=C(\Nc1ccc(N(C)C(=O)CN2CCN(C)CC2)cc1)c1ccccc1` [nintedanib], the “pro-COL1A1 protein level, IPF lung explant” value in assay [1] is listed as “significant reduction”.
Take Adalimumab: in assay [2], the Kd was 0.058 to 0.087 nM. In addition, the IC50 in assay [3] was 0.1 to 1 nM.
Turning to “Rizankizumab: FDA-approved monoclonal antibody medication”, the Kd in assay [2] is 0.029 nM. For the same compound, the IC50 in assay [3] was 0.024 nM.
With “Tocilizumab: FDA-approved monoclonal antibody medication”, the Kd in assay [2] is 2.5 nM. For the same compound, in assay [3], the IC50 is 0.09 nM.
